Test results published in patent US20220160703A1, “TUMOR-SELECTIVE COMBINATION THERAPY” (The Board of Regents of The University of Texas System, priority 2019, published 2022).

Tests used:
[1] = system: NQO1 positive human lung carcinoma lines A549; test: Cell survival of A549 cells (SRB); format: cell-based; conditions: β-lap 0-6 μM 3 hr, survival 4 days later
Method: (FIG. 18A) B16 NQO1 #1 cells were subcutaneously transplanted into C57BL/6 WT and Rag1KO mice (n=5/group), respectively. Tumor bearing mice were treated with β-lap (0.3 mg, i.t.) every other day for four times. (FIG. 18B) Changes of the immune cells in the tumor microenvironment 7 days after β-lap treatment. C57BL/6 mice (n=4/group) were transplanted with MC38 cells and intratumorally treated with 0.3 mg of β-lap for two times. 7 days after the last treatment, tumor tissue was removed and digested, and immune cells were analyzed with flow cytometer (unpaired student t-test was used to analyze the significance of changes, *P<0.05, **P<0.01). (FIG. 18C) C57BL/6 mice were transplanted with MC38 cells and treated with β-lap (0.3 mg, i.t.) every other day for four times. For T cell depletion, 200 μg of anti-CD4 or anti-CD8 antibodies were injected four times at three days interval during the treatment. […] Data are shown as mean±SEM.
Sulforhodamine B (SRB) Cytotoxicity Assay. 4,000 cells were planted in 96 or 48 well plate with triplicates. After overnight growth, cells were exposed to β-lapachone with or without NQO1 inhibitor dicoumarol (50 μM) for a 3-hour pulse.

MC38 tumor = test: MC38 subcutaneous syngeneic tumor model; format: in vivo, mice
tumor specific T cells = test: IFNγ ELISPOT / CBA tumor-specific T cell response; format: in vivo, mice
Method: FIGS. 3A-E. Batf3-dependent dendritic cell-mediated T cell cross-priming is required for the antitumor effect of β-lap. […] IFNγ producing cells were determined by ELISPOT assay. […] (FIG. 3D) MC38 cells were subcutaneously transplanted into C57BL/6 WT (n=5/group) and Batf3^-/- mice (n=5/group for Batf3^-/- vehicle; n=6/group for Batf3^-/- β-lap), respectively. Tumor bearing mice were treated with β-lap (0.3 mg, i.t.) every other day for four times. Tumor growth was monitored twice a week. (FIG. 3E) MC38-OVA bearing mice (n=3/group) were treated with β-lap (0.3 mg, i.t.) for one time, and 4 days later, CD11c^+ dendritic cells were purified from the tumor drain lymph node, and cocultured with CD8 T cells isolated from the spleen of OT-1 transgenic mice. The activity of cross-priming of T cells was determined by the level of cell-secreted IFNγ via Cytometric Bead Array (CBA) mouse IFNγ assay. Data are shown as mean±SEM from three independent experiments. **P<0.01, ***P<0.001, ****P<0.0001 determined by unpaired student t-test (FIGS. 3A, 3B and 3E) or two-way ANOVA (FIGS. 3C and 3D). FIGS. 4A-F. Type I IFNs and TLR4/MyD88/signaling is required for the antitumor effect of β-lap and tumor specific CTLs. (FIG. 4A) MC38 tumor bearing C57BL/6 mice (n=5/group) were treated with β-lap (0.3 mg, i.t.) every other day for four times. Anti-IFNAR blocking antibodies (150 μg, i.t.) were administrated every four days for three times during the treatment. (FIG. 4B) The MC38 tumor bearing WT (n=5/group) and […]=4/group) C57BL/6 mice were treated with β-lap (0.3 mg, i.t.) every other day for four times. (FIG. 4C) MC38 tumor bearing WT (n=5/group) and Myd88^-/- (n=3/group) C57BL/6 mice were treated with β-lap (0.3 mg, i.t.) every other day for four times. (FIG. 4D) MC38 tumor bearing WT (n=5/group) and Tlr4^-/- (n=4/group) C57BL/6 mice were treated with β-lap (0.3 mg, i.t.) every other day for four times). (FIG. 4E) MC38 tumor bearing C57BL/6 mice (n=5/group) were treated with β-lap (0.3 mg, i.t.) every other day for four times. Anti-HMGB1 neutralized antibodies (200 μg, i.p) were administrated every three days for three times during the treatment. Tumor growth was monitored twice a week. (FIG. 4F) MC38 tumor bearing WT (n=4/group) or Tlr4^-/- (n=4/group) or MyD88-/- (n=6/group) C57BL/6 mice were treated with β-lap (0.3 mg, i.t.) every other day for four times. Anti-HMGB1 neutralized antibodies (200 μg, i.p) were administrated every three days for three times during the treatment. 12 days after the initial treatment, lymphocytes from the TdLN were isolated and stimulated with MC38 tumor cells irradiated with 60 Gy. IFNγ producing cells were determined by ELISPOTs assay. Data are shown as mean±SEM from two to three independent experiments. *P<0.05, **P<0.01, ***P<0.001, ****P<0.0001 determined by two-way ANOVA. […] (FIG. 6A) Treatment schema for local β-lap treatment based combinative therapy in FIG. 6B and FIG. 6C. (FIGS. 6B-C) MC38 tumor cells were s.c. inoculated into the flank of C57BL/6 mice (n=5/group). […] Tumor growth was monitored twice a week, and numbers of tumor free mice after treatment were shown. […] Tumor growth was monitored twice a week, and numbers of tumor free mice after treatment were shown. […] 12 days after first treatment, tumor infiltrating CD45^+ cells and lymphocytes were analyzed by flow cytometry (FIG. 6G), and OT-1 antigen specific T cells in the spleen were determined by IFNγ ELISPOT assay (FIG. 6H). […]

SMILES: CC1(C)CCC2=C(O1)c1ccccc1C(=O)C2=O [β-lap, β-lapachone]
- response to β-lap in vitro [1]: sensitive
- tumor growth with irradiation (MC38 tumor; 10 Gy + 0.1 mg β-lap, 3 i.t. injections, tumors 100 mm^3): significant inhibition of tumor growth
- response with irradiation (MC38 tumor; 10 Gy + β-lap 30 mg/kg i.p. every other day, 6 injections, tumors 50 mm3): significant synergistic responses
- therapeutic effect in NQO1 knockout MC38 mouse models (MC38 tumor; NQO1 KO MC38, 0.3 mg i.t. four times): abolished
- mice cured (MC38 tumor; WT C57BL/6, 4 doses of β-lap (0.3 mg, i.t.)): 50%
- mice with complete tumor rejection (MC38 tumor; local β-lap 15 mg/kg, 7/15 mice): 46.7%
- TGI (MC38 tumor; small tumors (about 50 mm^3), β-lap 0.3 mg i.t. four times): 93.0%
- antitumor efficacy with anti-IFNAR blocking antibody (MC38 tumor; β-lap 0.1 mg i.t., anti-IFNAR Ab 150 μg): greatly impaired the antitumor efficacy
- effect with HMGB1 blockade (MC38 tumor; β-lap 0.3 mg i.t. + anti-HMGB1 200 μg i.p.): diminished the effect
- therapeutic effect with neutrophil depletion (MC38 tumor; β-lap 0.3 mg i.t. + anti-Ly-6G 200 μg): greatly impaired the therapeutic effect
- tumor regression in IFNAR knockout mice (MC38 tumor; β-lap 0.3 mg i.t. day 9, 12, 15): totally abrogated
- therapeutic effect in Ifnar−/− mice (MC38 tumor; β-lap 0.3 mg i.t. four times): abrogated
- antitumor effect alone or with CD4+ T cell depletion (MC38 tumor; β-lap 0.3 mg i.t. ± anti-CD4 200 μg): controlled MC38 tumor growth
- tumor growth, systemic treatment (MC38 tumor; β-lap 30 mg/kg i.p. six times, anti-PD-L1, tumors about 50-100 mm^3): moderate inhibition of tumor growth
- IFNγ-producing T cells (tumor specific T cells; MC38, splenocytes 10 days after first β-lap, irradiated tumor cells): dramatically increased
- OT1 antigen specific T cells in tumor tissues and spleen (tumor specific T cells; MC38-OVA, 12 days after initial treatment): neither β-lap or anti-PD-L1 monotherapy increased
- numbers of OTI specific T cells in spleen (tumor specific T cells; MC38-OVA, OTI peptide stimulation): much higher
- IFNγ production by OTI T cells primed by TdLN DCs (tumor specific T cells; MC38-OVA, β-lap 0.3 mg i.t. once, DCs 4 days later, CBA): more IFNγ production
- tumor-reactive T cells in TdLN (tumor specific T cells; WT mice, MC38, 12 days after initial treatment): increased the number of tumor-reactive T cells
